Assays:
[1] = test system: HCT-116 colon cancer cell lines; assay: Invasion Assay using Matrigel, HCT-116; type: cell-based, human; details: HCT-116, Matrigel invasion, 24 hours treatment
Description: To evaluate the metastasis inhibitory efficacy of the compounds of the present invention on HCT-116 colon cancer cell lines, an Invasion Assay using Matrigel was performed to assess the cells' invasion ability.
First, Matrigel was thawed on ice in RPMI-1640 medium without FBS, then diluted with DMEM at a ratio of 1:20.
The diluted Matrigel mixture was applied to the upper chamber at 100 μl per well, and 750 μl of RPMI-1640 without FBS was added to the lower chamber.
The plates were then incubated at 37° C. for 1 hour to allow the Matrigel to solidify.
After coating, the Matrigel mixture in the upper chamber was removed using a pipette, and the chamber was washed with RPMI without FBS.
Human-derived colorectal cancer cell line HCT-116, obtained from the Korean Cell Bank, was cultured in RPMI-1640 medium containing 10% FBS.
Following stabilization, the cells were harvested using Trypsin-EDTA treatment, centrifuged at 1,200 rpm for 3 minutes, the supernatant was removed, and the cells were resuspended in the same medium, the medium in the lower chamber was replaced with 750 μl of RPMI-1640 supplemented with 10% FBS, and the cells were seeded into the upper chamber at a density of 5×10^4 cells/well.
The cells were cultured for 24 hours after attachment, and then the compounds according to the present invention (G078, G085, G086, G088, G089, PBK-2024-010, PBK-2025-010, PBK-2025-013, PBK-2025-016) and the control substance DMSO were diluted and added to the upper chamber after removing the medium.
Additionally, the medium in the lower chamber was replaced with fresh RPMI-1640 containing FBS, and the culture was continued.
After an additional 24 hours, the medium was removed, and 1 ml of methanol was added for 10 minutes to fix the cells.
Subsequently, 1 ml of Hematoxylin was added and reacted for 5 minutes, followed by 1 ml of Eosin, which was reacted for 30 seconds. The sample was then washed with distilled water (DW).
After staining was complete, any remaining cells in the upper chamber were removed. Finally, the infiltrated cells were observed under a microscope, photographed, and the degree of infiltration was analyzed.

[2] = test system: T cells isolated from mouse spleen; assay: T cell proliferation inhibition, CFSE flow cytometry, CD3/CD28 activation; type: cell-based; details: CD3/CD28 activated, 3 days
Description: To verify the T cell proliferation inhibitory effect of the compounds according to the present invention, the following experiment was performed based on flow cytometry analysis using carboxyfluorescein diacetate succinimidyl ester (CFSE), a fluorescent dye that binds to intracellular molecules via covalent bonds.
Spleens were extracted from 7-week-old C57BL/6 mice, ground, and then separated into single cells using a strainer (40 μm pore size, SPL). Red blood cells were removed using ACK (Ammonium-Chloride-Potassium) lysis buffer to isolate white blood cells.
Finally, using a MACS Magnetic Stand and LS column, T cells were isolated from the spleen.
The T cells isolated from the spleen were resuspended in 1 mL of free medium (RPMI-1640+200 U/mL penicillin+200 μg/mL streptomycin), and 0.3 μL of CFSE (10 mM) was added. The mixture was incubated at 37° C. for 5 minutes.
Free medium (10 mL) was added to stop the reaction, and the cells were centrifuged to obtain the cell pellet.
RPMI 1640 medium containing 10% FBS, 100 U/mL penicillin, 100 μg/mL streptomycin, and resuspended the cells. The cells were then seeded into a 96-well plate at a density of 2×10^5 cells per well and activated with CD3 and CD28 antibodies (0.5 μg/mL each) to activate T cells.
The compound diluted in DMSO was added at concentrations of 10 nM, 100 nM, 1 μM, 10 μM, 30 μM, and 50 μM, with three wells per concentration, and cultured at 37° C. and 5% CO2 for three days. The cells were then analyzed using a FACS Canto instrument.
The proliferation inhibition rate (%) was calculated using the following formula: […]

[3] = test system: phospho-PDK1 in SU-DHL-8 cells; assay: PDK1 phosphorylation (pPDK1) by flow cytometry in SU-DHL-8 cells; type: cell-based, human; details: SU-DHL-8, 24 hours, pPDK1-PE flow cytometry, vs control group
Description: SU-DHL-8 cells were cultured in RPMI-1640 medium (containing 10% FBS, 100 U/mL penicillin, and 100 μg/mL streptomycin), and the cell concentration was adjusted to 1×10^6 cells/mL and seeded into a 12-well plate. After stabilizing the cells, the compound of the present invention was added, and the cells were cultured for 24 hours.
After drug treatment, the cells were harvested, and the Fc receptor blocking process was performed. The cells were then fixed and permeabilized using the Intracellular Staining Kit (Cat. No. BD554715) from BD Biosciences. Subsequently, the intracellular pPDK1 was stained using the pPDK1-PE fluorescently labeled antibody (BD Biosciences).
Referring to the figure, the vertical axis represents the phosphorylation level of PDK1 (phospho-PDK1 expression level), and the horizontal axis denotes the concentration-dependent treatment conditions of each compound.

MRL/lpr mice = assay: Lupus animal model (MRL/lpr mice); type: in vivo, mouse; details: 41-week-old female MRL/lpr mice; GO15F (30 mg/kg), GO48 (1 mg/kg), GO88 (0.5 mg/kg) intraperitoneally once daily
Excerpt: The MRL/MpJ-Faslpr/J (Hereinafter Referred to as “MRL/lpr”) used in this experiment is one of the representative animal models for systemic lupus erythematosus (SLE), known to produce various autoantibodies, including antinuclear antibodies, due to the lpr (lymphoproliferation) gene.
In this invention, the period up to 9 weeks of age was considered the pre-disease stage, and the period after 23 weeks of age was considered the post-disease stage, and efficacy verification experiments using this model were conducted.
MRL/lpr mice were imported from The Jackson Laboratory and acclimatized for one week in an SPF (Specific Pathogen Free) facility maintained at a temperature of 21-24° C., humidity of 40-60%, and a 12-hour light-dark cycle (lights on at 7:00 AM, lights off at 7:00 PM). […]
The serum separated at the time of necropsy of the lupus animal model was analyzed using the ‘IgG (Total) Mouse Uncoated ELISA Kit (Invitrogen, Cat. #88-50400)’ to measure the concentration of total IgG.
Capture antibody (anti-mouse IgG) diluted 1/250 in coating buffer was added to each well of a 96-well plate (Nunc™ MaxiSorp™ ELISA Plates, Uncoated, BioLegend, Cat. #423501) at 100 μl per well, and the plate was incubated at 4° C. for 16 hours.
To investigate the effect of GO15F administration on changes in the ratio of immune cells in the spleen of a lupus animal model, the spleens of mice administered each compound were excised, cells were extracted, and the cells were suspended in MACS buffer (autoMACS Washing Solution, Miltenyi Biotec., Cat. #130-092-987).
For flow cytometry analysis, FACS tubes (5 mL round tubes, Falcon, Cat. #352052) were used. To prevent non-specific binding of antibodies, 1 μg/mL of anti-mouse CD16/CD32 (InVivoPlus anti-mouse CD16/CD32, BioXCell, Cat. #BP0307) for 30 minutes to prevent non-specific binding of the antibody, then centrifuge at 1,500 rpm for 5 minutes and resuspend in 100 μL of MACS buffer.
For B cells, each FACS tube was stained with 1 μg/mL of FITC-conjugated anti-B220 antibody (eBioscience™, Cat. #11-0452-81) at 4° C. for 30 minutes, then washed with 2 mL of MACS buffer.
For T cells, each FACS tube was stained with 1 μg/mL PerCP-Cy5.5-conjugated anti-CD3 (Biolegend, Cat. #100218) at 4° C. for 30 minutes.
For macrophages, each FACS tube was stained with 1 μg/mL of PE-conjugated anti-CD11b antibody (Biolegend, Cat. #101207) and PerCP-Cy5.5-conjugated anti-F4/80 (Biolegend, Cat. #123128) and incubated at 4° C. for 30 minutes. The tubes were then washed with 2 mL of MACS buffer.
To investigate the effects of compound GO15F according to the present invention on systemic immune responses in a lupus animal model, gene expression analysis of cytokines in kidney tissue was performed as described in (1).
Each kidney tissue was used to isolate total RNA using TRIzol™ (Invitrozen, Cat. #15596018). RNA from each mouse was quantified at 1 μg using a micro-quantitative spectrophotometer (ThermoFisher Scientific, ND2000) and cDNA was synthesized.
The synthesized cDNA from each mouse was quantified to a concentration of 50 ng using a micro-quantitative spectrophotometer, and qPCR was performed for the cytokines ‘IL-2, IL-6, IL-10, IL-17, TNF-α, IFN-γ’ using a SYBR green probe (CFX96, BIO-RAD).
To investigate the effects of drug administration on renal tissue in MRL/lpr mice, the tissue was fixed in 10% neutral buffered formalin at room temperature, followed by stepwise ethanol penetration for dehydration. The tissue was then embedded in xylene and paraffin.
The blocked tissues were sectioned into 4 μm thick slices using a microtome, followed by deparaffinization, hydration, and staining.
Hematoxylin & Eosin staining, PAS staining, and Masson trichrome staining were performed for pathological evaluation of the tissues. […]

[4] = test system: psoriasis-induced BALB/c mice; assay: Psoriasis animal model (Aldara cream, Imiquimod); type: in vivo, mouse
Description: To verify the therapeutic effect of the compound according to the present invention on psoriasis, a psoriasis animal model was established as follows, and the compound according to the present invention was administered to evaluate the alleviation of skin lesions and changes in immune cell patterns.
For the establishment of the psoriasis animal model, BALB/c mice (7 weeks old, female, 20 g) were purchased from HanabioTech Co., Ltd. and acclimatized to the rearing environment for one week.
Subsequently, the hair on the mouse back was shaved using a hair removal device for the first time, and then completely shaved using a depilatory cream (Nicrin Cream (80% thioglycolic acid, Il Dong Pharmaceutical)) for the second time. The mice were then kept for 24 hours to confirm the absence of skin damage.
To verify the psoriasis prevention and therapeutic effects of the compounds according to the present invention, the following experimental groups were established:
[Normal control group (Normal, Not Treatment), psoriasis-induced control group (Psoriasis, Not Treatment), psoriasis-induced vehicle control group (Psoriasis, Vehicle), experimental group (GO85, GO86, GO88, GO89, PBK-2024-010, PBK-2024-026, PBK-2025-002, PBK-2025-004, PBK-2025-016, PBK-2025-017, PBK-2025-023)]. […]
Body weights of mice in each group were measured on days 1, 4, and 8 after the start of injection and psoriasis induction. […]
To evaluate the therapeutic effect in a psoriasis-induced mouse model, the PASI (Psoriasis Area and Severity Index) score was measured.
The PASI score is based on three criteria: erythema, scaling, and skin thickness, each scored from 0 (none) to 4 (severe). […]
Observations were conducted daily at the same time, and the same observer visually assessed each criterion and recorded the scores, with the results presented in FIG. 13. […]
All samples were measured in duplicate, and the absorbance was measured at 450 nm using a microplate reader.

Molecule | number of infiltrated cells [1] | Proliferation inhibition rate (%) ([2]; compound 10 nM) | Proliferation inhibition rate (%) ([2]; compound 100 nM) | Proliferation inhibition rate (%) ([2]; compound 1 μM) | Proliferation inhibition rate (%) ([2]; compound 10 μM) | Proliferation inhibition rate (%) ([2]; compound 30 μM) | Proliferation inhibition rate (%) ([2]; compound 50 μM) | PDK1 phosphorylation (phospho-PDK1 expression level) [3] | hair growth on the facial region (MRL/lpr mice) | efficacy in improving dermatological symptoms [4]
12-(4-hydroxypiperazin-1-yl)dodecyl-N-(6-aminopurazin-2-yl)carboxamide [Compound 10] | reduction in the number of infiltrated cells | 100.00% | 100.00% | 100.00% | 100.00% | 100.00% | 100.00% |  |  | 
Nc1ncccc1C(=O)NCCCCCCCCCCCCN1CCOCC1 [Compound 2, 2-Amino-N-(12-morpholin-4-yl-dodecyl)-nicotinamide] |  |  |  |  |  |  |  | stronger PDK1 inhibition | hair growth was confirmed | 
Nc1nc(NC(=O)CCCCCCCCCCCCN2CCN(CCO)CC2)nc2nc[nH]c12 [Compound 15, 12-[4-(2-hydroxyethyl)piperazin-1-yl]dodecyl-N-(6-aminopurine-2-yl)carboxamide] | reduction in the number of infiltrated cells |  |  |  |  |  |  |  |  | excellent efficacy in improving dermatological symptoms
